Assay results taken from patent US5972946A, “Acetamide derivative, process for preparing the same, and a pharmaceutical composition containing the same” (Dainippon Pharmaceutical Co., Ltd., priority 1995, dated 1999).

Assays:
[1] = Light and dark box test (anti-anxiety effect); format: in vivo, mouse (Std-ddY, male); conditions: Mus musculus, 0.5 h; oral, 30 min before test; mice; p<0.05 vs vehicle; read-out: Anti-anxiety effect MED (minimum effective dose)
Source text: Experiment 2: Light and dark box test (anti-anxiety effect)
Anti-anxiety effect of test compounds was examined in a box with light and dark compartments according to the method of Crawley, J. and Goodwin, F. K. [cf. Pharmacol. Biochem. Behav. 13, 167-170 (1980)] with slight modification.
Light and dark box test is a useful, simple and handy method for behaviorally and pharmacologically examining anti-anxiety effect of the drugs, by utilizing the habit of rodents such as mice and rats, etc. which prefer to stay in a dark place, and regarding as positive drug effect the increase of the relative stay of the animals in the light compartment which is an uncomfortable place for the animals.
Light and dark box test was carried out using the test box device (35×15×17 cm) which comprises: a light compartment (20×15×17 cm) consisting of transparent acrylic plates and highly illuminated by an incandescent lamp (1,700 lux); a dark compartment (15×15×17 cm) being made of black acrylic plates connected to the light compartment; and at the boundary of compartments, an opening (4.4×5 cm) in which mice can go through freely between two compartments.
Male mice of Std-ddY strain weighing 25-30 g were used in a group of 10. Each trial was started by placing a mouse in the center of the light compartment 30 minutes after oral administration of a test compound, and the time spent by the mouse in the light compartment during a 5 minute observation period was measured, and the rate of the stay of mice in the light compartment to the whole time spent in the experiment was calculated. The increasing rate of the relative stay of the test compound to that of the vehicle control group was yielded, based on the rate of the stay of mice in the light compartment.
The anti-anxiety effect of the test compound was represented by the minimum effectivetive dose (MED) at which the increasing rate of the relative stay was regarded statistically as significant (Williams-Wilcoxon's test, p<0.05).

[2] = molecular target: peripheral (ω3) benzodiazepine (BZ) receptor (Rattus norvegicus, UniProt P16257); assay: BZω3 (peripheral-type) benzodiazepine receptor binding assay
Protocol: Experiment 1: Central (ω1, ω2) and peripheral (ω3) benzodiazepine (BZ) receptor binding assays
BZω1 and BZω2 receptor binding assays were carried out according to the method of Stephens, D. N. et al. [cf.
Receptor membrane fractions for ω1, ω2 and ω3 were prepared from the cerebellum (ω1), spinal cord (ω1) or kidney (ω3) in 7-8 week old male rats of Wistar strain by the procedure described below.
After the cerebellum or spinal cord was homogenized with 20 volumes of ice-cold 50 mM Tris-citrate buffer (pH 7.1), the homogenate was centrifuged for 15 minutes at 40,000 g. The pellet obtained was washed 4 times by the same procedure, frozen and stored for 24 hours at -60° C. The resulting pellet, after being thawed, washed with the buffer and centrifuged, was suspended in the buffer I for the binding assay (50 mM Tris-HCl buffer containing 120 mM NaCl, 5 mM KCl, 2 mM CaCl2 and 1 mM MgCl2 ; pH 7.4) and the suspension thus obtained (containing 1 g wet tissue/40 ml) was used for the BZω1 and BZω2 receptor binding assays. On the other hand, the kidney was homogenized with 20 volumes of the ice-cold buffer II for the binding assay (50 mM Na--K phosphate buffer containing 100 mM NaCl; pH 7.4), filtered through 4 sheets of gauze, and centrifuged for 20 minutes at 40,000 g. The pellet obtained was suspended in the buffer II and the suspension (containing 1 g wet tissue/100 ml) was used for the binding assay as BZω3 receptor membrane source.
Flumazenil (final concentration: 0.3 nM for (ω1 and 1 nM for ω2) and flunitrazepam (final concentration: 10 μM) were used for the BZω1 or BZω2 receptor binding assays as the isotope-labeled and unlabeled ligands, respectively. For the BZω3 receptor binding assay, [^3 H] 4'-chlorodiazepam (7-chloro-1,3-dihydro-1-methyl-5-(4-chlorophenyl)-2H-1,4-benzodiazepin-2-one) (final concentration: 0.5 nM) and diazepam (final concentration: 100 μM) were used as the isotope-labeled and unlabeled ligands, respectively. Incubation was performed for 30 minutes at 37° C. in the BZω1 or BZω2 receptor binding assays, and for 150 minutes at 0° C. in the BZω3 receptor binding assay. The BZω1 or BZω2 receptor binding assays were carried out in the presence of bicuculline (final concentration: 100 μM).
The binding assay was performed by the following procedure. After adding each test compound at certain known concentrations, a [^3 H] ligand and the buffer I or II to each test tube, each assay was started by addition of membrane preparation (total volume of 1 ml). After incubation, the assay was terminated by filtration with suction through a Whatman GF/B glass fiber filter using a cell harvester (Brandel, USA). The filters were rapidly washed 3 times with 5 ml of ice-cold 50 mM Tris-HCl buffer (pH 7.7) for ω1 and ω2, or the buffer II forω3, and transferred to scintillation vials containing 10 ml liquid scintillation cocktail (ACS-II, Amersham, USA). After a few hours, retained radioactivity was counted by a liquid scintillation spectrometer. Specific binding of [^3 H] ligands was calculated as the difference between amounts of radioactivity bound in the presence and absence of excess unlabeled ligands.

[3] = Isoniazid-induced clonic convulsion test (anti-convulsant effect); format: in vivo, mouse (Std-ddY, male); conditions: Mus musculus, 0.5 h; oral, 30 min before isoniazid 200 mg/kg s.c.; mice; read-out: Anti-isoniazid effect ED25 (dose which prolonged the onset time of clonic convulsion by 25%)
Source text: Experiment 3: Isoniazid-induced clonic convulsion test (anti-convulsant effect)
Isoniazid inhibits glutamate decarboxylase which catalyzes GABA synthesis, deases brain GABA levels, and induces clonic convulsion. According to the method of Auta, J. et al. [cf. J. Pharmacol. Exp. Ther. 265, 649-656 (1993)] with slight modification, we examined antagonistic effect of the test compounds on isoniazid-induced clonic convulsion. […] Those are BZ anxiolytics represented by diazepam, neurosteroids such as allopregnanolone, allotetrahydrodeoxycortico-sterone(THDOC) and BZω3 receptor agonists which enhance the synthesis of neurosteroids.
Male mice of Std-ddY strain weighing 22-24 g were used in a group of 6. Thirty minutes after oral administration of the test compounds, mice were injected with isoniazid (200 mg/kg, s.c.), and immediately thereafter, placed individually in acrylic observation cages. The onset time of clonic convulsion was measured (cut-off time: 90 minutes). The latency in the control group was about 40 minutes.
Anti-isoniazid effect of the test compounds was expressed as the dose which prolonged the onset time by 25% compared to that in the vehicle group (ED25). The ED25 value was calculated according to the Litchfield-Wilcoxon's method.

Structure (SMILES): CCCN(C(=O)CNc1nc(-c2ccccc2)nc(C)c1C)c1ccccc1 [Example 52, 2-(5,6-Dimethyl-2-phenyl-4-pyrimidinylamino)-N-phenyl-N-propylacetamide]
- minimal effective dose [1]: 0.1 mg/kg
- IC50 [2]: 29.5 nM
- ED25 [3]: 23.5 mg/kg

Structure (SMILES): CCN(CC)C(=O)CNc1nc(-c2ccc(OC)cc2)nc(C)c1C [Example 12]
- ED25 [3]: 31.8 mg/kg

Structure (SMILES): Cc1nc(-c2ccc(Cl)cc2)nc(NCC(=O)N(C)c2ccccc2)c1C [Example 23, 2-[2-(4-Chlorophenyl)-5,6-dimethyl-4-pyrimidinylamino]-N-methyl-N-phenylacetamide]
- minimal effective dose [1]: 0.01 mg/kg
- IC50 [2]: 1.76 nM
- ED25 [3]: 40.8 mg/kg

Structure (SMILES): Cc1nc(-c2ccccc2)nc(NCC(=O)N(C)c2ccc(F)cc2)c1C [Example 35]
- minimal effective dose [1]: 0.1 mg/kg
- IC50 [2]: 1.51 nM
- ED25 [3]: 85.7 mg/kg

Structure (SMILES): C=CCN(C(=O)CNc1nc(-c2ccc(OC)cc2)nc(C)c1C)c1ccccc1 [Example 60]
- ED25 [3]: 2.14 mg/kg

Structure (SMILES): Cc1nc(-c2ccccc2)nc(NCC(=O)N2CC(C)CC(C)C2)c1C (stereo not drawn) [Example 65, 3,5-Dimethyl-1-(5,6-dimethyl-2-phenyl-4-pyrimidinylamino)acetylpiperidine]
- IC50 [2]: 1.66 nM
- ED25 [3]: 31.1 mg/kg

Structure (SMILES): CCN(C(=O)CNc1nc(-c2ccc(F)cc2)nc(C)c1C)c1ccccc1 [Example 47]
- IC50 [2]: 0.16 nM
- ED25 [3]: 7.62 mg/kg

Structure (SMILES): Cc1nc(-c2ccccc2)nc(NCC(=O)N(C)c2cccc(Cl)c2)c1C [Example 31]
- minimal effective dose [1]: 0.3 mg/kg

Structure (SMILES): CCN(CC)C(=O)CNc1nc(-c2ccc(F)cc2)nc(C)c1C [Example 11]
- ED25 [3]: 47.5 mg/kg

Structure (SMILES): Cc1nc(-c2ccc(F)cc2)nc(NCC(=O)N(C)c2ccccc2)c1C [Example 25]
- IC50 [2]: 1.93 nM
- ED25 [3]: 62.1 mg/kg

Structure (SMILES): Cc1nc(-c2ccccc2)nc(NCC(=O)N2C[C@@H](C)O[C@@H](C)C2)c1C [Example 66b, cis-2,6-Dimethyl-4-(5,6-dimethyl-2-phenyl-4-pyrimidinylamino)acetylmorpholine]
- ED25 [3]: 72.4 mg/kg

Structure (SMILES): CCCN(CCC)C(=O)CNc1nc(-c2ccccc2)nc(C)c1C [Example 1, 2-(5,6-dimethyl-2-phenyl-4-pyrimidinylamino)-N,N-dipropylacetamide]
- minimal effective dose [1]: 0.3 mg/kg
- IC50 [2]: 3.1 nM
- ED25 [3]: 82.2 mg/kg

Structure (SMILES): CCN(C(=O)CNc1nc(-c2ccccc2)nc(C)c1C)c1ccccc1 [Example 44]
- IC50 [2]: 4.98 nM
- ED25 [3]: 22.4 mg/kg

Structure (SMILES): Cc1nc(-c2ccccc2)nc(OCC(=O)N2CC(C)OC(C)C2)c1C (stereo not drawn) [Example 171, 2,6-Dimethyl-4-(5,6-dimethyl-2-phenyl-4-pyrimidinyloxy)acetylmorpholine]
- IC50 [2]: 1.56 nM
- ED25 [3]: 76.4 mg/kg

Structure (SMILES): Cc1nc(-c2ccccc2)nc(NCC(=O)N(CC2CC2)c2ccccc2)c1C [Example 61]
- IC50 [2]: 9.8 nM
- ED25 [3]: 17.7 mg/kg

Structure (SMILES): C=CCN(C(=O)CNc1nc(-c2ccccc2)nc(C)c1C)c1ccccc1 [Example 58]
- IC50 [2]: 1.62 nM
- ED25 [3]: 11.8 mg/kg

Structure (SMILES): CCCN(CCC)C(=O)CNc1nc(-c2ccc(Cl)cc2)nc(C)c1C [Example 2, 2-[2-(4-Chlorophenyl)-5,6-dimethyl-4-pyrimidinylamino]-N,N-dipropylacetamide]
- minimal effective dose [1]: 0.01 mg/kg
- IC50 [2]: 0.97 nM
- ED25 [3]: 65.6 mg/kg

Structure (SMILES): Cc1nc(-c2ccccc2)nc(NCC(=O)N2CC(C)OC(C)C2)c1C (stereo not drawn) [Example 66a, 2,6-Dimethyl-4-(5,6-dimethyl-2-phenyl-4-pyrimidinylamino)acetylmorpholine]
- ED25 [3]: 51.2 mg/kg

Structure (SMILES): CCCN(CCC)C(=O)CNc1nc(-c2ccccc2)nc(C)c1CC [Example 83, 2-(5-ethyl-6-methyl-2-phenyl-4-pyrimidinylamino)-N,N-dipropylacetamide]
- IC50 [2]: 5.02 nM
- ED25 [3]: 70.2 mg/kg

Structure (SMILES): Cc1nc(-c2ccccc2)nc(NCC(=O)N(C)c2ccccc2)c1C [Example 22]
- minimal effective dose [1]: 0.3 mg/kg
- IC50 [2]: 3.26 nM
- ED25 [3]: 50.3 mg/kg

Structure (SMILES): CCN(C(=O)CNc1nc(-c2ccc(OC)cc2)nc(C)c1C)c1ccccc1 [Example 48]
- ED25 [3]: 7.67 mg/kg

Structure (SMILES): CCCN(CCC)C(=O)CNc1nc(-c2ccc(F)cc2)nc(C)c1C [Example 4]
- IC50 [2]: 4.36 nM
- ED25 [3]: 51.2 mg/kg

Structure (SMILES): Cc1nc(-c2ccccc2)nc(NCC(=O)N(C)c2ccc(Br)cc2)c1C [Example 37]
- minimal effective dose [1]: 0.1 mg/kg
- IC50 [2]: 1.66 nM
- ED25 [3]: 61.9 mg/kg

Structure (SMILES): CCCCN(CCCC)C(=O)CNc1nc(-c2ccc(F)cc2)nc(C)c1C [Example 16]
- minimal effective dose [1]: 0.1 mg/kg
- IC50 [2]: 4 nM

Structure (SMILES): CCCN(CC)C(=O)CNc1nc(-c2ccccc2)nc(C)c1C [Example 17]
- IC50 [2]: 1.97 nM
- ED25 [3]: 45.7 mg/kg

Structure (SMILES): CCCN(C(=O)CNc1nc(-c2ccc(Cl)cc2)nc(C)c1C)c1ccccc1 [Example 53]
- ED25 [3]: 11.3 mg/kg

Structure (SMILES): Cc1nc(-c2ccccc2)nc(NCC(=O)N(C)c2ccc(Cl)cc2)c1C [Example 29, N-(4-Chlorophenyl)-N-methyl-2-(5,6-dimethyl-2-phenyl-4-pyrimidinylamino) a cetamide]
- minimal effective dose [1]: 0.03 mg/kg
- IC50 [2]: 0.85 nM
- ED25 [3]: 67.5 mg/kg

Structure (SMILES): CCN(CC)C(=O)CNc1nc(-c2ccc(Cl)cc2)nc(C)c1C [Example 10, 2-[2-(4-Chlorophenyl)-5,6-dimethyl-4-pyrimidinylamino]-N,N-diethylacetamide]
- minimal effective dose [1]: 1 mg/kg
- IC50 [2]: 0.7 nM
- ED25 [3]: 36.9 mg/kg

Structure (SMILES): Cc1nc(-c2ccccc2)nc(N2CCCC2C(=O)N(C)c2ccc(Cl)cc2)c1C (stereo not drawn) [Example 79, N-(4-chlorophenyl)-N-methyl-1-(5,6-dimethyl-2-phenyl-4-pyrimidinyl)-2-pyrrolidinecarboxamide]
- IC50 [2]: 0.87 nM
- ED25 [3]: 43.8 mg/kg

Structure (SMILES): Cc1nc(-c2ccccc2)nc(NCC(=O)N(C)CC(C)C)c1C [Example 21]
- minimal effective dose [1]: 0.1 mg/kg
- ED25 [3]: 72.1 mg/kg

Structure (SMILES): COc1ccc(N(C)C(=O)CNc2nc(-c3ccc(Cl)cc3)nc(C)c2C)cc1 [Example 42, 2-[2-(4-Chlorophenyl)-5,6-dimethyl-4-pyrimidinylamino]-N-(4-methoxyphenyl)-N-methylacetamide]
- minimal effective dose [1]: < 0.01 mg/kg
- IC50 [2]: 2.15 nM
- ED25 [3]: 58.7 mg/kg

Structure (SMILES): C=CCN(C(=O)CNc1nc(-c2ccc(Cl)cc2)nc(C)c1C)c1ccccc1 [Example 59]
- ED25 [3]: 14.8 mg/kg

Structure (SMILES): CCCN(CCC)C(=O)COc1nc(-c2ccc(OC)cc2)nc(C)c1C [Example 139]
- minimal effective dose [1]: 0.1 mg/kg
- IC50 [2]: 0.38 nM

Structure (SMILES): CCCCN(C(=O)CNc1nc(-c2ccccc2)nc(C)c1C)c1ccccc1 [Example 57]
- IC50 [2]: 5.39 nM

Structure (SMILES): CCCN(CCC)C(=O)CN(C)c1nc(-c2ccccc2)nc(C)c1C [Example 70, 2-[methyl-(5,6-dimethyl-2-phenyl-4-pyrimidinyl)amino]-N,N-dipropylacetamide]
- IC50 [2]: 1.12 nM

Structure (SMILES): CCCN(CCC)C(=O)CNc1nc(-c2ccc(OC)cc2)nc(C)c1C [Example 5]
- IC50 [2]: 1.28 nM
- ED25 [3]: 15.1 mg/kg

Structure (SMILES): COc1ccc(-c2nc(C)c(C)c(OCC(=O)N(C)c3ccc(Cl)cc3)n2)cc1 [Example 150]
- minimal effective dose [1]: 0.3 mg/kg

Structure (SMILES): CCN(C(=O)CNc1nc(-c2ccc([N+](=O)[O-])cc2)nc(C)c1C)c1ccccc1 [Example 50]
- ED25 [3]: 27.3 mg/kg

Structure (SMILES): Cc1nc(-c2ccc(Cl)cc2)nc(NCC(=O)N(C)c2ccc(F)cc2)c1C [Example 36, 2-[2-(4-Chlorophenyl)-5,6-dimethyl-4-pyrimidinylamino]-N-(4-fluorophenyl)-N-methylacetamide]
- minimal effective dose [1]: 0.3 mg/kg
- IC50 [2]: 1.44 nM
- ED25 [3]: 54.2 mg/kg

Structure (SMILES): CCN(CC)C(=O)CNc1nc(-c2ccccc2)nc(C)c1C [Example 9]
- minimal effective dose [1]: 0.3 mg/kg
- ED25 [3]: 25.5 mg/kg

Structure (SMILES): CCN(C(=O)CNc1nc(-c2ccc(Cl)cc2)nc(C)c1C)c1ccccc1 [Example 45, 2-[2-(4-Chlorophenyl)-5,6-dimethyl-4-pyrimidinylamino]-N-ethyl-N-phenylacetamide]
- minimal effective dose [1]: 0.1 mg/kg
- IC50 [2]: 0.7 nM
- ED25 [3]: 9.6 mg/kg
